{"source": "patent US6929790B2", "about": "“Compositions to control oral microbial oxidation-reduction (Eh) levels” (priority 1996, dated 2005)", "key": {"[1]": {"test_system": "mixed bacteria in salivary sediment", "experiment": "Eh lowering by amino acids or salivary supernatant in the salivary sediment system", "conditions": "3 mM amino acid, 16.7% salivary sediment, 60 mM phosphate buffer, 37° C., up to 24 hours; for Lowest Eh reached, Group B: Group B (next lowest Eh); for Lowest Eh reached, Group A: Group A (highest Eh levels)", "description": "This model utilizes the mixed oral bacteria collected in the salivary sediment obtained from whole saliva by centrifugation. […] This model is recognized in the art as an effective proxy to study the microbial metabolic and related biochemical processes of the oral cavity.\n(§1) To collect salivary sediment and salivary supernatant for the assay, saliva stimulated by chewing paraffin wax was expectorated into test-tubes chilled in cracked ice. […] Following collection, the saliva was centrifuged at 1740×g for 15 minutes and the supernatant was subsequently removed by pipette and kept on ice until the assay was run. Next, the sediment was washed three times with ice cold distilled water to remove any residual salivary supernatant. The washed salivary sediment was chilled in crushed ice until the assay was run. Prior to incubating the samples and running the assay, the washed salivary sediment was re-suspended in distilled water to a final concentration of 50 percent (V/V).\nA control tube contained sediment and water.\n(§2) The oxidation-reduction potential (Eh) was determined in each incubation mixture using a platinum electrode and a potassium chloride salt bridge leading to a calomel reference electrode connected to a pH meter used as a millivoltmeter."}, "[2]": {"test_system": "soft tissues of the oral cavity", "conditions": "cited from earlier work"}, "oral bacteria [3]": {"test_system": "oral bacteria", "experiment": "In vivo cysteine rinse challenge, VSC (Halimeter) and tongue Eh before and after test rinse (Examples IV-VII)", "set-up": "species or system human subjects", "description": "The ability of a zinc chloride rinse solution to reduce or prevent the formation of volatile sulfur compounds (VSC) in vivo following successive challenges with a cysteine rinse was studied in this Example. The rinse solution consisted of zinc chloride at 6 mM (0.08%). […] The subject rinsed his/her mouth with 5 ml of a 6 mM cysteine solution for 30 seconds to stimulate substantial VSC production by the oral bacteria. […] Before and following the rinse, a Halimeter instrument was used to measure the volatile sulfur compounds (VSC) produced. Simultaneously, a platinum electrode was placed on the posterior dorsum surface of the tongue, just anterior to the circumvallate papillae to measure the Eh. After 20 minutes, the subject rinsed his/her mouth with 5 ml of the zinc chloride solution for 30 seconds. Again, the VSC of the subject's mouth air and the Eh were measured. The subject then rinsed successively with the 6 mM cysteine solution at 40, 60, 140, 320 and 380 minutes and the VSC and Eh of the subject's oral cavity were re-measured each time (see FIG. 5) using the Halimeter and the platinum electrode.\n(§3) As before, 5 ml of the zinc/peroxide/chloride ion composition of this invention was applied as a rinse for 30 seconds.\nas §3\nThe abilities of 0.1% sodium chlorite rinse solutions, one without and one with zinc chloride at 6 mM (0.08%) were compared in this Example for their abilities to reduce or prevent the formation of VSC in vivo following successive challenges with a cysteine rinse as before. The oral rinse consisted of application of 5 ml for 30 seconds of either an 0.1% sodium chlorite solution or an 0.1% sodium chlorite solution to which zinc chloride at 0.08% had been added."}, "[4]": {"conditions": "25° C.; cited from earlier work"}, "mixed oral bacteria": {"test_system": "mixed oral bacteria", "experiment": "Eh during incubation of salivary sediment and salivary supernatant with zinc chloride and/or hydrogen peroxide (Example II)", "conditions": "zinc chloride 6.0 mM (0.08%), hydrogen peroxide 0.5%, 37° C., 24 hours", "description": "as §1, §2\nA tube was prepared containing salivary sediment and salivary supernatant only (water control)."}, "oral bacteria [5]": {"test_system": "oral bacteria", "experiment": "Zinc ion concentration versus rate of volatile sulfur compound production from cysteine (FIG. 1)", "format": "cell-based", "conditions": "inhibition is exponential", "description": "Inhibition is exponential and occurs maximally once the zinc ion concentration reaches about 0.2%."}}}
{"molecule": "N=C(N)NCCC[C@H](N)C(=O)O", "note": "[arginine]", "values": [{"measurement": "Lowest Eh reached, Group B", "setting": "[1]", "value": 25, "unit": "millivolts"}]}
{"molecule": "N[C@@H](CC(=O)O)C(=O)O", "note": "[aspartic]", "values": [{"measurement": "Lowest Eh reached, Group A", "setting": "[1]", "value": 80, "unit": "millivolts"}]}
{"molecule": "N[C@@H](CCC(=O)O)C(=O)O", "note": "[glutamic]", "values": [{"measurement": "Lowest Eh reached, Group B", "setting": "[1]", "value": 30, "unit": "millivolts"}]}
{"molecule": "OO", "note": "[hydrogen peroxide]", "values": [{"measurement": "Hydrogen peroxide concentration above which it can be harmful to the soft tissues of the oral cavity", "setting": "[2]", "value": "3.0 to 3.5", "unit": "%"}]}
{"molecule": "NCCCC[C@H](N)C(=O)O", "note": "[lysine]", "values": [{"measurement": "Lowest Eh reached, Group A", "setting": "[1]", "value": 95, "unit": "millivolts"}]}
{"molecule": "NCCC[C@H](N)C(=O)O", "note": "[ornithine]", "values": [{"measurement": "Lowest Eh reached, Group B", "setting": "[1]", "value": 55, "unit": "millivolts"}]}
{"molecule": "N[C@@H](Cc1ccccc1)C(=O)O", "note": "[phenylalanine]", "values": [{"measurement": "Lowest Eh reached, Group A", "setting": "[1]", "value": 100, "unit": "millivolts"}]}
{"molecule": "N[C@@H](Cc1ccc(O)cc1)C(=O)O", "note": "[tyrosine]", "values": [{"measurement": "Lowest Eh reached, Group B", "setting": "[1]", "value": 40, "unit": "millivolts"}]}
{"molecule": "[Cl-].[Cl-].[Zn+2]", "note": "[zinc chloride]", "values": [{"measurement": "Time for which the VSC response to subsequent cysteine rinses was retarded", "setting": "oral bacteria [3]; Example IV, zinc chloride 6 mM (0.08%), 5 ml rinse for 30 seconds", "value": "about 5 hours"}, {"measurement": "VSC response to cysteine rinsing", "setting": "oral bacteria [3]; Example IV, zinc chloride 6 mM (0.08%), 5 ml rinse for 30 seconds, 6 mM cysteine challenges", "value": "reduced the ability of the oral bacteria to produce the VSC response to cysteine rinsing"}, {"measurement": "Eh during rinsing", "setting": "oral bacteria [3]; Example IV, zinc chloride 6 mM (0.08%), platinum electrode on tongue dorsum", "value": "raised to a small degree"}, {"measurement": "Solubility", "setting": "[4]", "value": "432 @ 25 °C g/100 cc"}, {"measurement": "Decrease in the Eh during incubation", "setting": "mixed oral bacteria", "value": "some decrease in the Eh"}, {"measurement": "Eh of the incubation mixture compared to salivary supernatant plus salivary sediment control", "setting": "mixed oral bacteria", "value": "significantly raised the Eh"}]}
{"molecule": "[Zn+2]", "note": "[zinc ion]", "values": [{"measurement": "Zinc ion concentration at which inhibition of volatile sulfur compound production from cysteine is maximal", "setting": "oral bacteria [5]", "value": "about 0.2%"}]}
{"molecule": "sodium chlorite", "values": [{"measurement": "Inhibition of VSC production", "setting": "oral bacteria [3]; Example VII, 0.1% sodium chlorite solution, 5 ml for 30 seconds", "value": "no inhibition of VSC production"}]}
